≈ marks a conversion by molar mass, not a printed value. Calls of active or inactive are those of the source. The calls are words filed in the database; no cut-off is given here.
Key:
Bacillus subtilis = assay: Antibacterial activity against Bacillus subtilis assessed as inhibition of bacterial growth by two-fold serial broth dilution method; type: functional
[1] = system: Acinetobacter calcoaceticus; assay: Antibacterial activity against Acinetobacter calcoaceticus assessed as inhibition of bacterial growth by two-fold serial broth dilution method; type: functional
Salmonella enterica = assay: Antibacterial activity against Salmonella enterica assessed as inhibition of bacterial growth by two-fold serial broth dilution method; type: functional
Enterococcus faecalis [2] = assay: Antibacterial activity against Enterococcus faecalis assessed as inhibition of bacterial growth by two-fold serial broth dilution method; type: functional
Staphylococcus aureus = assay: Antibacterial activity against Staphylococcus aureus assessed as inhibition of bacterial growth by two-fold serial broth dilution method; type: functional
Escherichia coli = assay: Antibacterial activity against Escherichia coli assessed as inhibition of bacterial growth by two-fold serial broth dilution method; type: functional
Serratia marcescens = assay: Antibacterial activity against Serratia marcescens assessed as inhibition of bacterial growth by two-fold serial broth dilution method; type: functional
Listeria = assay: Antibacterial activity against Listeria sps. assessed as inhibition of bacterial growth by two-fold serial broth dilution method; type: functional
A498 = assay: Cytotoxicity against human A498 cells at 10 uM; type: functional
HOP-92 = assay: Cytotoxicity against human HOP-92 cells assessed as inhibition of cell growth at 10 uM; type: functional
HEK293 [3] = assay: Cytotoxicity against human HEK293 cells at 0.01 uM by MTT assay; type: toxicity, cell-based; conditions: hek293, 0.01 µM
MDA-MB-435 = assay: Cytotoxicity against human MDA-MB-435 cells at 10 uM; type: functional
M14 = assay: Cytotoxicity against human M14 cells assessed as inhibition of cell growth at 10 uM; type: functional
HEK293 [4] = assay: Cytotoxicity against human HEK293 cells at 0.1 uM by MTT assay; type: toxicity, cell-based; conditions: hek293, 0.1 µM
COLO 205 = assay: Cytotoxicity against human COLO 205 cells assessed as inhibition of cell growth at 10 uM; type: functional
MOLT-4 = assay: Cytotoxicity against human MOLT-4 cells assessed as inhibition of cell growth at 10 uM; type: functional
HEK293 [5] = assay: Cytotoxicity against human HEK293 cells at 1 uM by MTT assay; type: toxicity, cell-based; conditions: hek293, 1 µM
MDA-MB-468 = assay: Cytotoxicity against human MDA-MB-468 cells at 10 uM; type: functional
SK-MEL-5 = assay: Cytotoxicity against human SK-MEL-5 cells assessed as inhibition of cell growth at 10 uM; type: functional
HEK293 [6] = assay: Cytotoxicity against human HEK293 cells at 100 uM by MTT assay; type: toxicity, cell-based; conditions: hek293, 100 µM
HEK293 [7] = assay: Cytotoxicity against human HEK293 cells at 10 uM by MTT assay; type: toxicity, cell-based; conditions: hek293, 10 µM
Enterococcus faecalis [8] = assay: Potency index, ratio of chloromycin MIC to test compound MIC for antibacterial activity against Enterococcus faecalis; type: functional
Enterococcus faecalis [9] = assay: Potency index, ratio of amoxicillin MIC to test compound MIC for antibacterial activity against Enterococcus faecalis; type: functional

Row | SMILES | MIC (Bacillus subtilis) | MIC [1] | MIC (Salmonella enterica) | MIC (Enterococcus faecalis [2]) | MIC (Staphylococcus aureus) | MIC (Escherichia coli) | MIC (Serratia marcescens) | MIC (Listeria) | also measured
1 | O=C1c2cccc3cccc(c23)C(=O)N1Nc1nc(N2CCCCC2)nc(N2CCOCC2)n1 | 6.25 µg/mL (≈ 13.6 µM) | 200 µg/mL (≈ 435 µM) | 200 µg/mL (≈ 435 µM) | inactive | 1.56 µg/mL (≈ 3.39 µM) | 400 µg/mL (≈ 870 µM) | 200 µg/mL (≈ 435 µM) | 50 µg/mL (≈ 109 µM) | –
2 | CN(C)CCNc1nc(NN2C(=O)c3cccc4cccc(c34)C2=O)nc(N2CCOCC2)n1 | 200 µg/mL (≈ 432 µM) | 100 µg/mL (≈ 216 µM) | 100 µg/mL (≈ 216 µM) | 200 µg/mL (≈ 432 µM) | 100 µg/mL (≈ 216 µM) | 200 µg/mL (≈ 432 µM) | 25 µg/mL (≈ 54.1 µM) | 50 µg/mL (≈ 108 µM) | –
3 | COc1ccc(CNc2nc(NN3C(=O)c4cccc5cccc(c45)C3=O)nc(N3CCOCC3)n2)cc1 | 12.5 µg/mL (≈ 24.4 µM) | 100 µg/mL (≈ 195 µM) | 100 µg/mL (≈ 195 µM) | 3.12 µg/mL (≈ 6.11 µM) | 6.25 µg/mL (≈ 12.2 µM) | 200 µg/mL (≈ 391 µM) | 200 µg/mL (≈ 391 µM) | 50 µg/mL (≈ 97.7 µM) | –
4 | O=C1c2cccc3cccc(c23)C(=O)N1Nc1nc(N2CCOCC2)nc(N2CCN(c3ccccc3)CC2)n1 | 50 µg/mL (≈ 93.2 µM) | 200 µg/mL (≈ 373 µM) | 200 µg/mL (≈ 373 µM) | 200 µg/mL (≈ 373 µM) | 100 µg/mL (≈ 186 µM) | inactive | 50 µg/mL (≈ 93.2 µM) | 0.39 µg/mL (≈ 0.727 µM) | Activity (A498): -3.13%; inhibition at 10 µM (HOP-92): 92.5%; Activity (HEK293 [3]): 14.05%; Activity (MDA-MB-435): -12.6%; inhibition at 10 µM (M14): 80.6%; Activity (HEK293 [4]): 13.57%; inhibition at 10 µM (COLO 205): 96.5%; inhibition at 10 µM (MOLT-4): 81.6%; Activity (HEK293 [5]): 13.01%; Activity (MDA-MB-468): -15.85%; inhibition at 10 µM (SK-MEL-5): 95%; Activity (HEK293 [6]): 10.08%; Activity (HEK293 [7]): 12%
5 | O=C1c2cccc3cccc(c23)C(=O)N1Nc1nc(N2CCOCC2)nc(N2CCN(Cc3ccccc3)CC2)n1 | 200 µg/mL (≈ 363 µM) | 200 µg/mL (≈ 363 µM) | 200 µg/mL (≈ 363 µM) | 200 µg/mL (≈ 363 µM) | 100 µg/mL (≈ 182 µM) | 200 µg/mL (≈ 363 µM) | 50 µg/mL (≈ 90.8 µM) | 6.25 µg/mL (≈ 11.4 µM) | –
6 | O=C1c2cccc3cccc(c23)C(=O)N1Nc1nc(N2CCOCC2)nc(N2CCOCC2)n1 | 100 µg/mL (≈ 217 µM) | 200 µg/mL (≈ 433 µM) | 100 µg/mL (≈ 217 µM) | 200 µg/mL (≈ 433 µM) | 1.56 µg/mL (≈ 3.38 µM) | 200 µg/mL (≈ 433 µM) | 200 µg/mL (≈ 433 µM) | 200 µg/mL (≈ 433 µM) | –
7 | C=CCNc1nc(NN2C(=O)c3cccc4cccc(c34)C2=O)nc(N2CCOCC2)n1 | 50 µg/mL (≈ 116 µM) | 100 µg/mL (≈ 232 µM) | 200 µg/mL (≈ 464 µM) | 100 µg/mL (≈ 232 µM) | 25 µg/mL (≈ 57.9 µM) | 200 µg/mL (≈ 464 µM) | 200 µg/mL (≈ 464 µM) | 100 µg/mL (≈ 232 µM) | –
8 | O=C1c2cccc3cccc(c23)C(=O)N1Nc1nc(NCc2ccc(F)cc2)nc(N2CCOCC2)n1 | 100 µg/mL (≈ 200 µM) | 100 µg/mL (≈ 200 µM) | 200 µg/mL (≈ 400 µM) | 6.25 µg/mL (≈ 12.5 µM) | 25 µg/mL (≈ 50 µM) | 100 µg/mL (≈ 200 µM) | 200 µg/mL (≈ 400 µM) | 200 µg/mL (≈ 400 µM) | –
9 | CCN1CCN(c2nc(NN3C(=O)c4cccc5cccc(c45)C3=O)nc(N3CCOCC3)n2)CC1 | 200 µg/mL (≈ 409 µM) | 200 µg/mL (≈ 409 µM) | 200 µg/mL (≈ 409 µM) | 200 µg/mL (≈ 409 µM) | 50 µg/mL (≈ 102 µM) | 100 µg/mL (≈ 205 µM) | 100 µg/mL (≈ 205 µM) | 3.12 µg/mL (≈ 6.39 µM) | –
10 | CCCCNc1nc(NN2C(=O)c3cccc4cccc(c34)C2=O)nc(N2CCOCC2)n1 | 25 µg/mL (≈ 55.9 µM) | 200 µg/mL (≈ 447 µM) | 100 µg/mL (≈ 223 µM) | 0.09 µg/mL (≈ 0.201 µM) | 12.5 µg/mL (≈ 27.9 µM) | 400 µg/mL (≈ 894 µM) | 200 µg/mL (≈ 447 µM) | 200 µg/mL (≈ 447 µM) | Ratio (Enterococcus faecalis [8]): 34; Ratio (Enterococcus faecalis [9]): 17
11 | O=C1c2cccc3cccc(c23)C(=O)N1Nc1nc(NC2CCCCC2)nc(N2CCOCC2)n1 | 50 µg/mL (≈ 106 µM) | 200 µg/mL (≈ 422 µM) | 200 µg/mL (≈ 422 µM) | 3.12 µg/mL (≈ 6.59 µM) | 100 µg/mL (≈ 211 µM) | 200 µg/mL (≈ 422 µM) | 200 µg/mL (≈ 422 µM) | 25 µg/mL (≈ 52.8 µM) | –
12 | O=c1[nH]cc(F)c(=O)[nH]1 [FLUOROURACIL] | – | – | – | – | – | – | – | – | inhibition at 10 µM (HOP-92): 50.6%; inhibition at 10 µM (MOLT-4): 42.3%; inhibition at 10 µM (SK-MEL-5): 66.3%
13 | CCN(CC)CCNc1nc(NN2C(=O)c3cccc4cccc(c34)C2=O)nc(N2CCOCC2)n1 | 50 µg/mL (≈ 102 µM) | 200 µg/mL (≈ 408 µM) | 200 µg/mL (≈ 408 µM) | 200 µg/mL (≈ 408 µM) | 100 µg/mL (≈ 204 µM) | 200 µg/mL (≈ 408 µM) | 12.5 µg/mL (≈ 25.5 µM) | 0.19 µg/mL (≈ 0.387 µM) | –
14 | C#CCNc1nc(NN2C(=O)c3cccc4cccc(c34)C2=O)nc(N2CCOCC2)n1 | 25 µg/mL (≈ 58.2 µM) | 200 µg/mL (≈ 466 µM) | 100 µg/mL (≈ 233 µM) | 0.048 µg/mL (≈ 0.112 µM) | 50 µg/mL (≈ 116 µM) | 100 µg/mL (≈ 233 µM) | 200 µg/mL (≈ 466 µM) | 200 µg/mL (≈ 466 µM) | –
15 | O=C1c2cccc3cccc(c23)C(=O)N1Nc1nc(Nc2ccc(F)cc2)nc(N2CCOCC2)n1 | 200 µg/mL (≈ 412 µM) | 200 µg/mL (≈ 412 µM) | 200 µg/mL (≈ 412 µM) | 200 µg/mL (≈ 412 µM) | 50 µg/mL (≈ 103 µM) | 400 µg/mL (≈ 824 µM) | 200 µg/mL (≈ 412 µM) | inactive | –
16 | CN1CCN(c2nc(NN3C(=O)c4cccc5cccc(c45)C3=O)nc(N3CCOCC3)n2)CC1 | 200 µg/mL (≈ 421 µM) | 200 µg/mL (≈ 421 µM) | 200 µg/mL (≈ 421 µM) | 200 µg/mL (≈ 421 µM) | 1.56 µg/mL (≈ 3.29 µM) | 100 µg/mL (≈ 211 µM) | 12.5 µg/mL (≈ 26.3 µM) | 0.006 µg/mL (≈ 0.0126 µM) | –
17 | N#Cc1ccc(CNc2nc(NN3C(=O)c4cccc5cccc(c45)C3=O)nc(N3CCOCC3)n2)cc1 | 400 µg/mL (≈ 790 µM) | 100 µg/mL (≈ 197 µM) | 400 µg/mL (≈ 790 µM) | 100 µg/mL (≈ 197 µM) | 100 µg/mL (≈ 197 µM) | 200 µg/mL (≈ 395 µM) | 200 µg/mL (≈ 395 µM) | 200 µg/mL (≈ 395 µM) | –
18 | c1ccc(CNc2nc(NCc3ccccc3)nc(N3CCOCC3)n2)cc1 | inactive | 200 µg/mL (≈ 531 µM) | inactive | 400 µg/mL (≈ 1060 µM) | 200 µg/mL (≈ 531 µM) | inactive | inactive | inactive | –
19 | CC1(C)S[C@@H]2[C@H](NC(=O)[C@H](N)c3ccc(O)cc3)C(=O)N2[C@H]1C(=O)O [AMOXICILLIN] | 50 µg/mL (≈ 137 µM) | 50 µg/mL (≈ 137 µM) | 200 µg/mL (≈ 547 µM) | 1.56 µg/mL (≈ 4.27 µM) | 25 µg/mL (≈ 68.4 µM) | 100 µg/mL (≈ 274 µM) | 1.56 µg/mL (≈ 4.27 µM) | 50 µg/mL (≈ 137 µM) | –
20 | Cc1ccc(CNc2nc(NN3C(=O)c4cccc5cccc(c45)C3=O)nc(N3CCOCC3)n2)cc1 | 12.5 µg/mL (≈ 25.2 µM) | 100 µg/mL (≈ 202 µM) | 200 µg/mL (≈ 404 µM) | 50 µg/mL (≈ 101 µM) | 12.5 µg/mL (≈ 25.2 µM) | 200 µg/mL (≈ 404 µM) | 100 µg/mL (≈ 202 µM) | 25 µg/mL (≈ 50.4 µM) | –
21 | O=C1c2cccc3cccc(c23)C(=O)N1Nc1nc(NCCN2CCOCC2)nc(N2CCOCC2)n1 | 200 µg/mL (≈ 396 µM) | 200 µg/mL (≈ 396 µM) | 200 µg/mL (≈ 396 µM) | 200 µg/mL (≈ 396 µM) | 3.12 µg/mL (≈ 6.18 µM) | 100 µg/mL (≈ 198 µM) | 50 µg/mL (≈ 99.1 µM) | 0.048 µg/mL (≈ 0.0951 µM) | –
